The target of one experiment is T1, Human M4 (Homo sapiens, UniProt P08173).
T1 construct: expressed in transfected cells; host or cells: CHO-K1 (ATCC), stably co-expressing chimeric G protein Gqi5
T1 sequence (P08173 1-479): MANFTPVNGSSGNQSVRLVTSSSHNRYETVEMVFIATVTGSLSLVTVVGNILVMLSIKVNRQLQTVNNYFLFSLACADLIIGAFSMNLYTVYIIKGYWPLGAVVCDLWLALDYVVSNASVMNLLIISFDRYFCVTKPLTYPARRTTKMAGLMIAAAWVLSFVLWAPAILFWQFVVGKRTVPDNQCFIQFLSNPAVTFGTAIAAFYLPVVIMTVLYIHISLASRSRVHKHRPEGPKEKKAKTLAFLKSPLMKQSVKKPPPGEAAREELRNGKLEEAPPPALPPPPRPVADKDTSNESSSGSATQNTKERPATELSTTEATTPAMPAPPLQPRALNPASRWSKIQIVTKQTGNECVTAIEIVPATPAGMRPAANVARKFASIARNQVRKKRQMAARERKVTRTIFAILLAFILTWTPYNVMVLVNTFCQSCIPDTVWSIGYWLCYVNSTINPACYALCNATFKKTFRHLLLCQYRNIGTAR
Put plainly: mAChR M4 cell-based functional assay (calcium flux, Fluo-4, M4/Gqi5/CHO-K1 cells). The settings on record: for remaining activity at 30 µM: CHO-K1, read-out: Human M4 Emin (%), % ACh maximum at 30 μM. On the procedure: Human or rat M4 cDNA, along with the chimeric G protein Gqi5, were transfected into Chinese hamster ovary (CHO-K1) cells purchased from the American Type Culture Collection using Lipofectamine2000. M4/Gqi5/CHO cells were grown in Ham's F-12 medium containing 10% heat-inactivated fetal bovine serum (FBS), 20 mM HEPES, 500 μg/mL 418 sulfate, and 200 μg/mL Hygromycin B.
For high throughput measurement of agonist-evoked increases in intracellular calcium, CHO-K1 cells stably expressing muscarinic receptors were plated in growth medium lacking 418 and hygromycin at 15,000 cells/20 μL/well in Greiner 384-well black-walled, tissue culture (TC)-treated, clear-bottom plates (VWR). Cells were incubated overnight at 37° C. and 5% CO2. The next day, cells were washed using an ELX 405 (BioTek) with assay buffer; the final volume was then aspirated to 20 μL. Next, 20 μL of a 2.3 μM stock of Fluo-4/acetoxymethyl ester (Invitrogen, Carlsbad, CA), prepared as a 2.3 mM stock in DMSO and mixed in a 1:1 ratio with 10% (w/v) Pluronic F-127 and diluted in assay buffer, was added to the wells and the cell plates were incubated for 50 min at 37° C. and 5% CO2. Dye was removed by washing with the ELX 405 and the final volume was aspirated to 20 μL. Compound master plates were formatted in a 10 point concentration-response curve (CRC) format (1:3 dilutions) in 100% DMSO with a starting concentration of 10 or 1 mM using a BRAVO liquid handler (Agilent). Test compound CRCs were then transferred to daughter plates (240 nL) using the Echo acoustic plate reformatter (Labcyte, Sunnyvale, CA) and then diluted into assay buffer (40 μL) to a 2× stock using a Thermo Fisher Combi (Thermo Fisher Scientific, Waltham, MA).
Calcium flux was measured using the Functional Drug Screening System (FDSS) 6000 or 7000 (Hamamatsu Corporation, Tokyo, Japan) as an increase in the fluorescent static ratio. Compounds were applied to cells (20 μL, 2×) using the automated system of the FDSS at 2 seconds into the protocol and the data were collected at 1 Hz. At 143 s, 10 μL of an EC20 concentration of the muscarinic receptor agonist acetylcholine was added (5×), followed by the addition of 12 μL of an EC80 concentration of acetylcholine at the 268 s time point (5×). Agonist activity was analyzed as a concentration-dependent increase in calcium mobilization upon compound addition. Positive allosteric modulator activity was analyzed as a concentration-dependent increase in the EC20 acetylcholine response. Antagonist activity was analyzed as a concentration-dependent decrease in the ECK) acetylcholine response; for the purposes of the tables herein, an IC50 (inhibitory concentration 50) was calculated as a concentration-dependent decrease of the response elicited by an ECK) concentration of acetylcholine. Concentration-response curves were generated using a four-parameter logistical equation in XLFit curve fitting software (IDBS, Bridgewater, NJ) for Excel (Microsoft, Redmond, WA) or Prism (GraphPad Software, Inc., San Diego, CA) or the Dotmatics software platform (Dotmatics, Bishop's Stortford, UK).
Compounds were synthesized as described above. Activity (IC50 and Emin) was determined in the mAChR M4 cell-based functional assay as described above and the data are shown in Table 2.

Experiment [1] relates to catalepsy induced by the DA receptor antagonist haloperidol. Put plainly: Reversal of haloperidol-induced catalepsy by scopolamine in mice. In kind it is in vivo. From the text:
Furthermore, haloperidol-induced catalepsy, a model of parkinsonian motor disability, is reduced in M4 knockout mice as compared to wild-type controls. […] The reversal by scopolamine was uncommonly robust and more pronounced than we observe with agents targeting a number of other targets being evaluated for potential antiparkinsonian effects, including metabotropic glutamate (mGlu) receptors mGlu4 or mGlu5, A2A adenosine receptors, and NMDA receptors. […] Taken together with the extensive studies of M4 modulation of basal ganglia and motor function, these studies provide compelling evidence that M4 is the dominant mAChR subtype involved in the antiparkinsonian effects of non-selective mAChR antagonists and provide support for discovery and development of selective M4 antagonists for treatment of neurodegenerative disease such as PD, dystonia, tardive dyskinesia and other movement disorders.

As a reminder, the IC50 is the concentration needed to halve the response being measured. For `[2H]C([2H])(C1CCOCC1)N1C[C@H]2C[C@H](Nc3nnc(-c4cc(F)ccc4F)c4sccc34)C[C@H]2C1` [compound 18, 7-(2,5-difluorophenyl)-N-((3aR,5s,6aS)-2-((tetrahydro-2H-pyran-4-yl)methyl-d2)octahydrocyclopenta[c]pyrrol-5-yl)thieno[2,3-d]pyridazin-4-amine], on Human M4, the IC50 was determined as 3 nM and the remaining activity at 30 µM turned out to be 3%.

Consider `[2H]C([2H])(C1CCOCC1)N1C[C@H]2C[C@H](Nc3nnc(-c4cc(F)ccc4C)c4sccc34)C[C@H]2C1` [compound 19, 7-(5-fluoro-2-methylphenyl)-N-((3aR,5s,6aS)-2-((tetrahydro-2H-pyran-4-yl)methyl-d2)octahydrocyclopenta[c]pyrrol-5-yl)thieno[2,3-d]pyridazin-4-amine], for which, at Human M4, the IC50 amounted to 1.4 nM and the remaining activity at 30 µM stood at 3%.

`FC1(F)CCN(c2nnc(N[C@H]3C[C@@H]4CN(CC5CCOCC5)C[C@@H]4C3)c3ccsc23)CC1` [compound 20, 7-(4,4-difluoropiperidin-1-yl)-N-((3aR,5s,6aS)-2-((tetrahydro-2H-pyran-4-yl)methyl)octahydrocyclopenta[c]pyrrol-5-yl)thieno[2,3-d]pyridazin-4-amine]: on Human M4, the half-maximal inhibitory concentration (IC50) came to 5.64 nM and the remaining activity at 30 µM was determined as 3%.

For `C[C@H]1CCCN(c2nnc(N[C@H]3C[C@@H]4CN(CC5CCOCC5)C[C@@H]4C3)c3ccsc23)C1` [compound 21, 7-((S)-3-methylpiperidin-1-yl)-N-((3aR,5s,6aS)-2-((tetrahydro-2H-pyran-4-yl)methyl)octahydrocyclopenta[c]pyrrol-5-yl)thieno[2,3-d]pyridazin-4-amine], on Human M4, the IC50 amounted to 15.1 nM and the remaining activity at 30 µM turned out to be 4%.

With `FC1(F)CCN(c2nnc(N[C@H]3C[C@@H]4CN(CC5CCOCC5)C[C@@H]4C3)c3c2CCCC3)CC1` [compound 22, 4-(4,4-difluoropiperidin-1-yl)-N-((3aR,5s,6aS)-2-((tetrahydro-2H-pyran-4-yl)methyl)octahydrocyclopenta[c]pyrrol-5-yl)-5,6,7,8-tetrahydrophthalazin-1-amine], on Human M4, the IC50 was found to be 14.6 nM and the remaining activity at 30 µM was 3%.

Turning to `Fc1ccc(F)c(-c2nnc(N[C@H]3C[C@@H]4CN(CC5CCOCC5)C[C@@H]4C3)c3c2CCCC3)c1` [compound 23, 4-(2,5-difluorophenyl)-N-((3aR,5s,6aS)-2-((tetrahydro-2H-pyran-4-yl)methyl)octahydrocyclopenta[c]pyrrol-5-yl)-5,6,7,8-tetrahydrophthalazin-1-amine], at Human M4, the IC50 worked out at 5.43 nM and the remaining activity at 30 µM was determined as 3%.

Turning to `Fc1ccccc1-c1nnc(N[C@H]2C[C@@H]3CN(CC4CCOCC4)C[C@@H]3C2)c2c1CCCC2` [compound 24, 4-(2-fluorophenyl)-N-((3aR,5s,6aS)-2-((tetrahydro-2H-pyran-4-yl)methyl)octahydrocyclopenta[c]pyrrol-5-yl)-5,6,7,8-tetrahydrophthalazin-1-amine], on Human M4, the half-inhibitory concentration (IC50) was determined as 6.2 nM and the remaining activity at 30 µM was 3%.

As to `Fc1cccc(-c2nnc(N[C@H]3C[C@@H]4CN(CC5CCOCC5)C[C@@H]4C3)c3c2CCCC3)c1` [compound 25, 4-(3-fluorophenyl)-N-((3aR,5s,6aS)-2-((tetrahydro-2H-pyran-4-yl)methyl)octahydrocyclopenta[c]pyrrol-5-yl)-5,6,7,8-tetrahydrophthalazin-1-amine], on Human M4, the IC50 was 9.04 nM and the remaining activity at 30 µM was 3%.

In the case of `Fc1ccc(-c2nnc(N[C@H]3C[C@@H]4CN(CC5CCOCC5)C[C@@H]4C3)c3c2CCCC3)cc1` [compound 26, 4-(4-fluorophenyl)-N-((3aR,5s,6aS)-2-((tetrahydro-2H-pyran-4-yl)methyl)octahydrocyclopenta[c]pyrrol-5-yl)-5,6,7,8-tetrahydrophthalazin-1-amine], at Human M4, the IC50 worked out at 58.9 nM and the remaining activity at 30 µM amounted to 3%.

Turning to `[2H]C([2H])(C1CCOCC1)N1C[C@H]2C[C@H](Nc3nnc(-c4cc(F)ccc4F)c4ccccc34)C[C@H]2C1` [compound 27, 4-(2,5-difluorophenyl)-N-((3aR,5s,6aS)-2-((tetrahydro-2H-pyran-4-yl)methyl-d2)octahydrocyclopenta[c]pyrrol-5-yl)phthalazin-1-amine], on Human M4, the 50% inhibitory concentration (IC50) worked out at 12 nM and the remaining activity at 30 µM was 3%.

In the case of `CN1[C@@H]2C[C@@H](OC(=O)[C@H](CO)c3ccccc3)C[C@H]1[C@@H]1O[C@@H]12` [scopolamine], the “Reduction of haloperidol-induced catalepsy” value in experiment [1] (M4 KO mice) is listed as “ineffective in reducing catalepsy”. The “Reversal of haloperidol-induced catalepsy” value in experiment [1] (WT mice) is listed as “completely reversed”.

The values above are taken from US12319701B2, “Antagonists of the muscarinic acetylcholine receptor M4” (priority 2019, dated 2025).
